From patent publication US20050058745A1, “Use of Labiatae herb preparations for extending the flavor shelf life of malt beverages” (priority 2003, published 2005)

How the values were obtained:
[1] = 3-Methylbutanal in headspace of aged beer; assay type: physicochemical; conditions: 20 ppm (RA + CA: 10 ppm each)
Protocol: The highly hopped beer from example 2 was treated with solutions of carnosic acid in ethanol, rosmarinic acid in ethanol or a mixture of carnosic acid and rosmarinic acid in ethanol as done previously. […] The bottles were fobbed to exclude air and crowned. • 3. “20 ppm CA+air” in which bottles were opened and 20 ppm CA added as above. These bottles received two puffs of air in the remaining headspace from a 25 mL bulb. They were crowned without fobbing • 4. “20 ppm RA” in which bottles were opened and 20 ppm rosmarinic acid added from a 2% solution. The bottles were fobbed and crowned. • 5. “20 ppm RA+air” which was done as in No. 4, with 20 ppm RA added. These bottles received the two puffs of air and were crowned without fobbing. • 6. “10 ppm RA+10 ppm CA” in which bottles were opened and 10 ppm each of carnosic and rosmarinic acids were added from pure solutions (178 μL of 2% solution per 12 oz bottle). Bottles were fobbed and crowned. • 7. “10 ppm RA+10 ppm CA+air” in which 10 ppm each of RA and CA was added. This treatment received two puffs of air and was not fobbed before closing. • 8. “Control+air” in which bottles were opened, given two puffs of air and crowned without fobbing. • 9. “Control” in which bottles were opened, fobbed and crowned. Treatments 2 through 9 were stored in a 40° C. hot room. At various times, bottles were opened and samples analyzed for phenylacetaldehyde and 3-methylbutanal by the method of “[…], et al. The results are shown in Table 19.

[2] = Haze formation in aged beer (Haze Meter); assay type: physicochemical; conditions: for Haze: 20 ppm (RA + CA: 10 ppm each); for effect on rate of haze formation: aged beer exposed to air
Protocol: The highly hopped beer from example 2 was treated with solutions of carnosic acid in ethanol, rosmarinic acid in ethanol or a mixture of carnosic acid and rosmarinic acid in ethanol as done previously. The preparations were: • 1. “Fresh”, in which the beer remained unopened and was stored in the cold room at 2-4° C. • 2. “20 ppm CA” in which bottles were opened and 20 ppm carnosic acid was added from a 2% solution of pure CA ([…] of the 2% solution). The bottles were fobbed to exclude air and crowned. • 3. “20 ppm CA+air” in which bottles were opened and 20 ppm CA added as above. These bottles received two puffs of air in the remaining headspace from a 25 mL bulb. They were crowned without fobbing • 4. “20 ppm RA” in which bottles were opened and 20 ppm rosmarinic acid added from a 2% solution. The bottles were fobbed and crowned. • 5. “20 ppm RA+air” which was done as in No. 4, with 20 ppm RA added. These bottles received the two puffs of air and were crowned without fobbing. • 6. “10 ppm RA+10 ppm CA” in which bottles were opened and 10 ppm each of carnosic and rosmarinic acids were added from pure solutions (178 μL of 2% solution per 12 oz bottle). Bottles were fobbed and crowned. • 7. “10 ppm RA+10 ppm CA+air” in which 10 ppm each of RA and CA was added. This treatment received two puffs of air and was not fobbed before closing. • 8. “Control+air” in which bottles were opened, given two puffs of air and crowned without fobbing. • 9. “Control” in which bottles were opened, fobbed and crowned.
The samples prepared in Example 18 were analyzed for haze in the following manner. A clean, dry, clear flint bottle was marked with a permanent mark on the neck for aligning the bottle the same way for each measurement. The bottle was filled with distilled water to the bottom of the neck and aligned in a Haze Meter with the alignment mark facing forward (Haze Meter, Type UKM1d, Radiometer Copenhagen) to zero the instrument. The bottle was emptied and then filled with a degassed beer sample to be tested and the haze was recorded in ASBC Formazin units.

[3] = Blind sensory triangle panels, model citrus beverage
Protocol: Carbon filtered water was carbonated to 3.5 to 4 times the volume of beer. 59.2 ml of syrup was added to each 355 ml bottle. Each bottle was individually dosed with the treatments listed in Table 22 by adding 1.775 mL of a 1% (weight/volume) solution of carnosol or rosmarinic acid in ethanol to give 50 ppm of each. The bottle was filled to approximately 355 ml with carbonated water before it was capped and inverted. Fresh samples were stored in the refrigerator (0° C.). Heat exposed samples were aged in the oven (32° C.) for seven days. […] Each panel was balanced, with half of the panel given control as the odd sample, the other half of the panel given a treated sample as the odd sample. Panelists were allowed to drink water during the panel.

[4] = DCIP redox potential of mash (first wort); assay type: physicochemical; conditions: for Redox: 20 ppm in mash (20 mg/kg of mash), first wort
Protocol: A 300 g sample of 2-row Pale Barley Malt obtained from a local brewery was ground to a “brewery grind” with a hand grinder. Fifty-gram samples of the ground malt were weighed into each of three 600 mL beakers. Tap water was boiled for 5 min to remove the chlorine and sanitize the water. When cooled, the pH of the water was adjusted from 7.86 to 5.5 with 0.1 N H2SO4. The water was then heated to 43° C. (109.4° F.) and 160 g of this adjusted water was added to each beaker. To one of the beakers was added 210 μL of a 2% solution of carnosic acid in ethanol (giving 20 mg CA/kg of mash). To another beaker was added 210 μL of a 2% solution of rosmarinic acid. One beaker received no treatment. The beakers were stirred for 10 min at 43° C. on a temperature probe controlled hot plate, with the probe in one of the beakers. After the 10 min period the beakers were placed on another temperature probe controlled hot plate set at 68° C. (154.4° F.), and the probe put in one of the mash beakers. The come up time was approximately 15 min from 43° C. to 68° C. The beakers were stirred at this temperature for 15 min. After the 15-minute mash, the beakers were removed from the hot plate and cooled in an ice bath. Each beaker's contents were strained through a paper filter. Approximately 75 mL of first wort was collected from each mash. The grain was not sparged. The °Balling of the worts was measured with a temperature-compensated refractometer (Abbe, Leica Mark II).

[5] = Trained panel flavor evaluation, light beer, forced aging; conditions: 5 ppm, 6 days 32° C.; for preservation of fresh flavor (words): light beer
Protocol: Separate solution of pure rosmarinic acid, pure carnosol and pure carnosic acid were prepared in ethanol as previously.
The light beer used in this study was approximately one month old and was purchased at a local market. Bottle additions were done as in Example 1.
The bottles were placed in a heated room at 32±1° C. in the dark. After the allotted aging time, the bottles of beer were transferred to a dark refrigerator and stored at approximately 2° to 4° C. until they were analyzed. Additional bottles from the same code were kept unopened in 2° to 4° C. storage. These unopened samples from the same beer code were labeled “Fresh Control” used to provide fresh samples for the trained panel.
At the appropriate times, a trained 7-member panel evaluated the beers. […] Five beers were evaluated at the session—Fresh Control, Aged No Addition, and Aged containing each one of the Labiatae treatments. The overall preference rank, the character and intensity of the aroma, the levels of paper/cardboard aroma and flavor, sour or off flavors, hang and astringency and bitterness quality and intensity were evaluated.

[6] = Aged Control vs. Aged treated (32° C., seven days), 50 ppm (CA + RA: 50 ppm each)
[7] = Fresh Control vs. Fresh treated, 50 ppm

SMILES	3-Methylbutanal in the headspace of aged beer ([1]; Day 0, 40° C., + air) [Parts per million]	3-Methylbutanal in the headspace of aged beer ([1]; Day 0, 40° C., no air) [Parts per million]	3-Methylbutanal in the headspace of aged beer ([1]; Day 3, 40° C., + air) [Parts per million]	3-Methylbutanal in the headspace of aged beer ([1]; Day 3, 40° C., no air) [Parts per million]	3-Methylbutanal in the headspace of aged beer ([1]; Day 7, 40° C., + air) [Parts per million]	3-Methylbutanal in the headspace of aged beer ([1]; Day 7, 40° C., no air) [Parts per million]	3-Methylbutanal in the headspace of aged beer ([1]; Day 14, 40° C., + air) [Parts per million]	3-Methylbutanal in the headspace of aged beer ([1]; Day 14, 40° C., no air) [Parts per million]	3-Methylbutanal in the headspace of aged beer ([1]; Day 21, 40° C., + air) [Parts per million]	3-Methylbutanal in the headspace of aged beer ([1]; Day 21, 40° C., no air) [Parts per million]	Haze ([2]; Day 0, 40° C., + air) [ASBC Formazin Units]	Haze ([2]; Day 0, 40° C., no air) [ASBC Formazin Units]	Haze ([2]; Day 3, 40° C., + air) [ASBC Formazin Units]	Haze ([2]; Day 3, 40° C., no air) [ASBC Formazin Units]	Haze ([2]; Day 7, 40° C., + air) [ASBC Formazin Units]	Haze ([2]; Day 7, 40° C., no air) [ASBC Formazin Units]	Haze ([2]; Day 14, 40° C., + air) [ASBC Formazin Units]	Haze ([2]; Day 14, 40° C., no air) [ASBC Formazin Units]	Haze ([2]; Day 21, 40° C., + air) [ASBC Formazin Units]	Haze ([2]; Day 21, 40° C., no air) [ASBC Formazin Units]	other results
O=C(/C=C/c1ccc(O)c(O)c1)O[C@H](Cc1ccc(O)c(O)c1)C(=O)O [RA, rosmarinic acid]	3.13	4.12	4.14	3.05	3.95	2.73	4.28	3.03	5.06	4.85	37	37	32	40	40	35	100	40	175	55	Haze ([2]; Day 35, 40° C., + air): 800 ASBC Formazin Units; Haze ([2]; Day 35, 40° C., no air): 120 ASBC Formazin Units; effect on rate of haze formation [2]: dramatic positive effect on reducing the rate of haze formation; Correct Panelists/Total Panelists (triangle test) [3, 6]: 12/20; Correct Panelists/Total Panelists (triangle test) ([3]; Fresh Control vs. Aged treated (32° C., seven days), 50 ppm (CA + RA: 50 ppm each)): 12/21; Correct Panelists/Total Panelists (triangle test) [3, 7]: 10/22; difference from untreated samples detected by triangle panel ([3]; aged for 7 days): significant difference with a 95% confidence level; Redox [4]: 38.8; panelists' preference for treated sample over Aged No Addition sample [5]: 7 of 7 panelists preferred; preservation of fresh flavor (words) [5]: very significantly retards the rate of staling
CC(C)c1cc2c(c(O)c1O)[C@@]1(C(=O)O)CCCC(C)(C)[C@@H]1CC2 [CA, carnosic acid]	3.44	3.24	3.85	3.13	3.68	2.98	3.45	1.82	5.09	4.66	40	40	45	30	50	35	80	45	120	75	Haze ([2]; Day 35, 40° C., + air): 800 ASBC Formazin Units; Haze ([2]; Day 35, 40° C., no air): 110 ASBC Formazin Units; effect on rate of haze formation [2]: dramatic positive effect on reducing the rate of haze formation; Correct Panelists/Total Panelists (triangle test) [3, 6]: 9/21; Correct Panelists/Total Panelists (triangle test) [3, 7]: 9/20; enhancing effect on redox potential of mash relative to RA ([4]; 20 ppm): less by about half the effect seen with RA; Redox [4]: 17.3; panelists' preference for treated sample over Aged No Addition sample [5]: 7 of 7 panelists preferred; preservation of fresh flavor (words) [5]: very significantly retards the rate of staling
